Data from patent US12343326B2, “Psychoactive medicines and their use for treating psychiatric and neurological conditions and disorders” (Transcend Therapeutics, Inc., priority 2021, dated 2025).

How the values were obtained:
Test in all cases: β-arrestin based GPCR screen (PathHunter / GPCRmax), antagonist mode
168 GPCRs [1] = target: 168 GPCRs (Homo sapiens, UniProt Q16581); settings: C3AR1, Antagonist
168 GPCRs [2] = target: 168 GPCRs (Homo sapiens, UniProt P51685); settings: CCR8, Antagonist
168 GPCRs [3] = target: T1, 168 GPCRs (Homo sapiens, UniProt Q9Y5Y4)
T1 sequence (Q9Y5Y4 1-395): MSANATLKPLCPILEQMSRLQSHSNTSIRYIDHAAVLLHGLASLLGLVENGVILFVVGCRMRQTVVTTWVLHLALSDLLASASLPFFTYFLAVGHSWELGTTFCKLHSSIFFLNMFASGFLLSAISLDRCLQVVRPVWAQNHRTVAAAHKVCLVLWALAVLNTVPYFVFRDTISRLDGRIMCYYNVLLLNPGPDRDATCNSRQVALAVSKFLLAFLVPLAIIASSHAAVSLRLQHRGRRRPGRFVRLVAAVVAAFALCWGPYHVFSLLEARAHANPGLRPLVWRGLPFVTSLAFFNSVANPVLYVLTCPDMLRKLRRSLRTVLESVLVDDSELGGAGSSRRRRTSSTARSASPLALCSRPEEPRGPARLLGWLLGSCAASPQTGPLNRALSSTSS

168 GPCRs [4] = target: 168 GPCRs (Homo sapiens, UniProt Q969F8); settings: KISS1R
168 GPCRs [5] = target: 168 GPCRs (Homo sapiens, UniProt P49683); settings: PRLHR
168 GPCRs [6] = target: 168 GPCRs (Homo sapiens, UniProt P25929); settings: NPY1R
168 GPCRs [7] = target: 168 GPCRs (Homo sapiens, UniProt Q9UKP6)
168 GPCRs [8] = target: 168 GPCRs (Homo sapiens, UniProt P41145)
168 GPCRs [9] = target: T2, 168 GPCRs (Homo sapiens, UniProt P32248); settings: CCR7, Antagonist
T2 sequence (P32248 25-378): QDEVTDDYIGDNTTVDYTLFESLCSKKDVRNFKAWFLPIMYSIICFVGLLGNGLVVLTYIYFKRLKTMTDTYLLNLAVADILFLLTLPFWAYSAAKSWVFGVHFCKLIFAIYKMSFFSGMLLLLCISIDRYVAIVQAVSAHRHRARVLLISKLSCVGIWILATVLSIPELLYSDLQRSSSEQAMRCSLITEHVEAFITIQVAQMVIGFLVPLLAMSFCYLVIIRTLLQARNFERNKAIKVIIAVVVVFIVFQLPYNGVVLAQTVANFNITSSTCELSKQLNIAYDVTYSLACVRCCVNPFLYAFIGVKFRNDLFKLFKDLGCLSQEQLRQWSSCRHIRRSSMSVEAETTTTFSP

168 GPCRs [10] = target: 168 GPCRs (Homo sapiens, UniProt P49682)
168 GPCRs [11] = target: 168 GPCRs (Homo sapiens, UniProt P47872); settings: SCTR
168 GPCRs [12] = target: 168 GPCRs (Homo sapiens, UniProt P20309); settings: CHRM3, Antagonist
168 GPCRs [13] = target: 168 GPCRs (Homo sapiens, UniProt P43088); settings: PTGFR
168 GPCRs [14] = target: 168 GPCRs (Homo sapiens, UniProt Q8TDV5)
168 GPCRs [15] = target: 168 GPCRs (Homo sapiens, UniProt Q9NSD7)
168 GPCRs [16] = target: 168 GPCRs (Homo sapiens, UniProt P07550); settings: ADRB2, Antagonist
168 GPCRs [17] = target: 168 GPCRs (Homo sapiens, UniProt P34972)
168 GPCRs [18] = target: 168 GPCRs (Homo sapiens, UniProt P41143)
Sequence of 168 GPCRs (Homo sapiens, UniProt P41143) (P41143 whole entry): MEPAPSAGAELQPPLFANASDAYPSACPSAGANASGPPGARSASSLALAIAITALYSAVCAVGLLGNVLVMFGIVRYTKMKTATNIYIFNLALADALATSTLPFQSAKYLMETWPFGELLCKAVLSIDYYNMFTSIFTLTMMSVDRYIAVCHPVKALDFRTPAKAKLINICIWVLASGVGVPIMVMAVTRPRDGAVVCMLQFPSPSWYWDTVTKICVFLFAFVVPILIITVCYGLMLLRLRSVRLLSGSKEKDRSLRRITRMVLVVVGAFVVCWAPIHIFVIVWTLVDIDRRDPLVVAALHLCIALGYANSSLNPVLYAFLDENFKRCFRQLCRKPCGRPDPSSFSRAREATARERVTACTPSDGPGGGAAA

Sequence of 168 GPCRs (Homo sapiens, UniProt P34972) (P34972 whole entry): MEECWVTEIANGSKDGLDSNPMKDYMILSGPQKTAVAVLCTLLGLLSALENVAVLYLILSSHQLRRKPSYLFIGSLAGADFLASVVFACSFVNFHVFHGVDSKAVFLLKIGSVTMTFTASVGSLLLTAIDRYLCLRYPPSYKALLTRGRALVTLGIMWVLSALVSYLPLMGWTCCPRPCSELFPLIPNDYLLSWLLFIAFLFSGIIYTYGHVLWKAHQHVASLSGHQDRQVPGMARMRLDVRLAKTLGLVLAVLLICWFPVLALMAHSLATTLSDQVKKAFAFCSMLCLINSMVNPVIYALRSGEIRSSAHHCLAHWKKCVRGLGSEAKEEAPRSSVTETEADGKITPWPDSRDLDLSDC
Sequence of 168 GPCRs (Homo sapiens, UniProt Q9NSD7) (Q9NSD7 whole entry): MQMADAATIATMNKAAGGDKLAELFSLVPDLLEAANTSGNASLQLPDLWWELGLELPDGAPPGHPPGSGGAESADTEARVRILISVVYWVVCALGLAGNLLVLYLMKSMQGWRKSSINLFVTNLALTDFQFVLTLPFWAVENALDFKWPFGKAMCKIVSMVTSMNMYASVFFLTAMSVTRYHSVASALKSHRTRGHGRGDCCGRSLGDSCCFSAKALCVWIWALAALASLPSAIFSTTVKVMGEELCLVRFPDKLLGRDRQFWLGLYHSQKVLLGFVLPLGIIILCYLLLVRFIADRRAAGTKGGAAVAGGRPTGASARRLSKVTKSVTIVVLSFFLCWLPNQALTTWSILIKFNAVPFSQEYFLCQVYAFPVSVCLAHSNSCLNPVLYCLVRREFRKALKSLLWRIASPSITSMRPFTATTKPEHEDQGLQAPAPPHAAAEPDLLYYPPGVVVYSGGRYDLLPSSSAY
Sequence of 168 GPCRs (Homo sapiens, UniProt P51685) (P51685 whole entry): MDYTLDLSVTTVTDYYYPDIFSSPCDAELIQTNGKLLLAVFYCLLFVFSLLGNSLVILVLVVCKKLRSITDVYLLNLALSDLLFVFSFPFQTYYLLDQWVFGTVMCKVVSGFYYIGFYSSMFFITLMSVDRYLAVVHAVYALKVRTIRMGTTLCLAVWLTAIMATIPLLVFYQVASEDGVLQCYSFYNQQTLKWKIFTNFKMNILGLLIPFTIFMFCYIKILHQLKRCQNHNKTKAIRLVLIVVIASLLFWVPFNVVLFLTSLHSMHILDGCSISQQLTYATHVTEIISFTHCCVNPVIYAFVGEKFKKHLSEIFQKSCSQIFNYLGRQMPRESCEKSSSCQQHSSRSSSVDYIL
Sequence of 168 GPCRs (Homo sapiens, UniProt P41145) (P41145 whole entry): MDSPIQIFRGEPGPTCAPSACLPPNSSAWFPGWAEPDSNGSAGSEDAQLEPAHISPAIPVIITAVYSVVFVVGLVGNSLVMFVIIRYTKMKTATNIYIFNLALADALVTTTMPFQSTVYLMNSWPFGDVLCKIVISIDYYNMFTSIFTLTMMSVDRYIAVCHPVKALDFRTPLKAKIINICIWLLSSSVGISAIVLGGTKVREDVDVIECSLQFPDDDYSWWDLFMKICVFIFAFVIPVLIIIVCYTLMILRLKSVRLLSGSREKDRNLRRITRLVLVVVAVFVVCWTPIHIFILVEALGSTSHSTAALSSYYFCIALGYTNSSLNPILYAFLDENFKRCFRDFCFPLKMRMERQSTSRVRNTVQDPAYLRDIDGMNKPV
Sequence of 168 GPCRs (Homo sapiens, UniProt P43088) (P43088 whole entry): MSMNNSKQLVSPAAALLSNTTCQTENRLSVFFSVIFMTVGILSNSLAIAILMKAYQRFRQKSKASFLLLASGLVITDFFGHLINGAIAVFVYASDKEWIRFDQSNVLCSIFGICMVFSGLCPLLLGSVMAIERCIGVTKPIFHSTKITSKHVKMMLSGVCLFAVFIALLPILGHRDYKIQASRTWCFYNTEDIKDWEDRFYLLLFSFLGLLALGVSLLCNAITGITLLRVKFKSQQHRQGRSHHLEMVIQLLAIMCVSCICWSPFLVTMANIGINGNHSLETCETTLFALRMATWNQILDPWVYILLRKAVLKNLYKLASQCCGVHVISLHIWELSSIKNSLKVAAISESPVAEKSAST
Sequence of 168 GPCRs (Homo sapiens, UniProt P20309) (P20309 whole entry): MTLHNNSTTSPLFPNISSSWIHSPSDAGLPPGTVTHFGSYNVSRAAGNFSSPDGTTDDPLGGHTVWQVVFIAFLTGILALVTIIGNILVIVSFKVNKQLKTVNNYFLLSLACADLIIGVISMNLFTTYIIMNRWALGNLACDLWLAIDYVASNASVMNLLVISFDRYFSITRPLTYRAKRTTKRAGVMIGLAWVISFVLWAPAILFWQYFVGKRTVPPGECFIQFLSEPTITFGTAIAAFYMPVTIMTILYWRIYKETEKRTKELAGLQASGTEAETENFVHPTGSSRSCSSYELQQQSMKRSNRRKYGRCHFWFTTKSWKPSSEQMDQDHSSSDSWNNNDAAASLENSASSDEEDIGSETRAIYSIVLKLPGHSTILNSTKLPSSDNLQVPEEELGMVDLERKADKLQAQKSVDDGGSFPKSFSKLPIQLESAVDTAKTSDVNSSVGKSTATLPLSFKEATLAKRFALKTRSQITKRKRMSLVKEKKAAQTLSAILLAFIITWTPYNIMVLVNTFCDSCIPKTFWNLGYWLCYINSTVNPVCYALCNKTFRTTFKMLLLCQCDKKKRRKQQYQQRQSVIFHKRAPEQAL
Sequence of 168 GPCRs (Homo sapiens, UniProt Q969F8) (Q969F8 whole entry): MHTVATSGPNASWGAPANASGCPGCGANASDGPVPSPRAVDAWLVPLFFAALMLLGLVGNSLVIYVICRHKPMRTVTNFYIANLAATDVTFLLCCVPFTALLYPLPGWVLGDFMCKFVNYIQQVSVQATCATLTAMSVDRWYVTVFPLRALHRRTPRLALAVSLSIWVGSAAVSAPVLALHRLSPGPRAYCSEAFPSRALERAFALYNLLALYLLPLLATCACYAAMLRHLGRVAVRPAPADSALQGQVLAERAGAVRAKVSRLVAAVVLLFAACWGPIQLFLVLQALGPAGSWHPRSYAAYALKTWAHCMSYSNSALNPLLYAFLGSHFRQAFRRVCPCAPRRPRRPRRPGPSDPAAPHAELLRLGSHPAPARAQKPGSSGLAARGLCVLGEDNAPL
Sequence of 168 GPCRs (Homo sapiens, UniProt P47872) (P47872 23-440): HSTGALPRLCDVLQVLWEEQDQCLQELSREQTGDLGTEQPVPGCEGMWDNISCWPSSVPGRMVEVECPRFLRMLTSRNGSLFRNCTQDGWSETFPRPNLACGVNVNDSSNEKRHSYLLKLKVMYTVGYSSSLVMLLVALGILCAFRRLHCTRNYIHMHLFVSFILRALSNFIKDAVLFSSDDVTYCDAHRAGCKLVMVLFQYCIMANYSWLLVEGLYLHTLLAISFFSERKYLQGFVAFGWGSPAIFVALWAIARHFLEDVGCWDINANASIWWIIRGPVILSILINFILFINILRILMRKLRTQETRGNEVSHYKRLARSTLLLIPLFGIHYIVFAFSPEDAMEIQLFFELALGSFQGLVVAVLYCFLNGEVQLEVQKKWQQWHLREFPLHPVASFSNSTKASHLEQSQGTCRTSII
Sequence of 168 GPCRs (Homo sapiens, UniProt P25929) (P25929 whole entry): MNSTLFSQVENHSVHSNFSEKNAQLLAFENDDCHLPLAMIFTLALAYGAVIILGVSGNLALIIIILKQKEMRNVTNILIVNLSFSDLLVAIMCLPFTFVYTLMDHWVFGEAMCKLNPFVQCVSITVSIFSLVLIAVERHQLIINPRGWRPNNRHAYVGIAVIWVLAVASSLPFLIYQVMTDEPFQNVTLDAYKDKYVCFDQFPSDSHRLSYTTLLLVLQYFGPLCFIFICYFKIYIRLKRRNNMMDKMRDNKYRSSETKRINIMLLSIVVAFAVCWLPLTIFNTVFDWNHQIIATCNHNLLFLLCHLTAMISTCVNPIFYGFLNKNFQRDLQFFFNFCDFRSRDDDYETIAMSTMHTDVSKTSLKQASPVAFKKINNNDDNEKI
Sequence of 168 GPCRs (Homo sapiens, UniProt Q8TDV5) (Q8TDV5 whole entry): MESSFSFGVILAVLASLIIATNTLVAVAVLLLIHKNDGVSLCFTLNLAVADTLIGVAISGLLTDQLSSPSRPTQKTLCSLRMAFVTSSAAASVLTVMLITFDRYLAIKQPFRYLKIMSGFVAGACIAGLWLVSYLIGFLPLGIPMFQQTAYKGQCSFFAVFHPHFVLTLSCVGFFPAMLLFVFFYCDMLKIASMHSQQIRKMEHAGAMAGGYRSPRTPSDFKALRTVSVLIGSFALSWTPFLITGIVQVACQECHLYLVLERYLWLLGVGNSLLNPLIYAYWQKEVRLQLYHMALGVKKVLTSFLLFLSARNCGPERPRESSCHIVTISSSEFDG
Sequence of 168 GPCRs (Homo sapiens, UniProt Q9UKP6) (Q9UKP6 whole entry): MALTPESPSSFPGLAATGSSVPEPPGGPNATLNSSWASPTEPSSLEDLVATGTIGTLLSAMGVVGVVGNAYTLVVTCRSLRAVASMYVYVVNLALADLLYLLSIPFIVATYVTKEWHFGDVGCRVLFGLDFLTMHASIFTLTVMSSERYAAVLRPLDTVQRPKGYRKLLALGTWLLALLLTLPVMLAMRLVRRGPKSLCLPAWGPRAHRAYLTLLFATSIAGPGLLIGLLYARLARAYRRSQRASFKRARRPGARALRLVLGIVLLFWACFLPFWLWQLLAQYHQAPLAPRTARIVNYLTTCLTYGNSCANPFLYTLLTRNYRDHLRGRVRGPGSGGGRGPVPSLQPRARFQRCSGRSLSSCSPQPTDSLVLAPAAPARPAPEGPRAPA

CNC(C)C(=O)c1ccc2c(c1)OCO2 (stereo not drawn) [methylone, 3,4-methylenedioxy-N-methylcathinone]
activity at 1 µM (168 GPCRs [1]; 1 uM): 2.5% | activity at 10 µM (168 GPCRs [1]; 10 uM): 0.3% | activity at 1 µM (168 GPCRs [2]; 1 uM): 4.7% | activity at 10 µM (168 GPCRs [2]; 10 uM): -0.3% | activity at 10 µM (168 GPCRs [3]; CRTH2, Antagonist mode, 10 uM): 8.9% | activity at 1 µM (168 GPCRs [3]; CRTH2, Antagonist, 1 uM): 9% | activity at 10 µM (168 GPCRs [4]; Antagonist mode, 10 uM): 14.5% | activity at 1 µM (168 GPCRs [4]; Antagonist, 1 uM): 28.7% | activity at 10 µM (168 GPCRs [5]; Antagonist mode, 10 uM): 15.8% | activity at 1 µM (168 GPCRs [5]; Antagonist, 1 uM): 17.8% | activity at 10 µM (168 GPCRs [6]; Antagonist mode, 10 uM): 5.4% | activity at 1 µM (168 GPCRs [6]; Antagonist, 1 uM): 0.2% | activity at 10 µM (168 GPCRs [7]; UTR2, Antagonist mode, 10 uM): 4.2% | activity at 1 µM (168 GPCRs [7]; UTR2, Antagonist, 1 uM): -2.1% | activity at 10 µM (168 GPCRs [8]; OPRK1, Antagonist mode, 10 uM): 10.4% | activity at 1 µM (168 GPCRs [8]; OPRK1, Antagonist, 1 uM): 11.8% | activity at 1 µM (168 GPCRs [9]; 1 uM): -8.3% | activity at 10 µM (168 GPCRs [9]; 10 uM): -3.4% | activity at 10 µM (168 GPCRs [10]; CXCR3, Antagonist mode, 10 uM): -3.9% | activity at 1 µM (168 GPCRs [10]; CXCR3, Antagonist, 1 uM): 4.5% | activity at 10 µM (168 GPCRs [11]; Antagonist mode, 10 uM): 2.5% | activity at 1 µM (168 GPCRs [11]; Antagonist, 1 uM): 5.3% | activity at 1 µM (168 GPCRs [12]; 1 uM): -5.5% | activity at 10 µM (168 GPCRs [12]; 10 uM): 14.6% | activity at 10 µM (168 GPCRs [13]; Antagonist mode, 10 uM): 0% | activity at 1 µM (168 GPCRs [13]; Antagonist, 1 uM): 0.9% | activity at 10 µM (168 GPCRs [14]; GPR119, Antagonist mode, 10 uM): -8.8% | activity at 1 µM (168 GPCRs [14]; GPR119, Antagonist, 1 uM): 17.1% | activity at 10 µM (168 GPCRs [15]; RXFP3, Antagonist mode, 10 uM): 32.6% | activity at 1 µM (168 GPCRs [15]; RXFP3, Antagonist, 1 uM): 23.1% | activity at 1 µM (168 GPCRs [16]; 1 uM): 18.1% | activity at 10 µM (168 GPCRs [16]; 10 uM): 20.4% | activity at 10 µM (168 GPCRs [17]; CNR2, Antagonist mode, 10 uM): -3.2% | activity at 1 µM (168 GPCRs [17]; CNR2, Antagonist, 1 uM): 3.6% | activity at 10 µM (168 GPCRs [18]; OPRD1, Antagonist mode, 10 uM): 3.5% | activity at 1 µM (168 GPCRs [18]; OPRD1, Antagonist, 1 uM): -2.7%
